Tests used:
[1] = Binding affinity to Wistar rat brain lipid by TRANSIL assay; format: ADME
[2] = Fraction unbound in Wistar rat brain homogenate at 5 uM after 5 hrs by equilibrium dialysis method
[3] = Percentage unbound in solid supported porcine brain membrane vesicles at 5 uM by TRANSIL assay; details: pig
Albumin = Albumin (Rattus norvegicus, UniProt P02770); assay: Binding affinity to Wistar rat serum albumin; format: ADME
[4] = Binding affinity to Wistar rat brain lipid assessed as percentage unbound by TRANSIL assay; format: ADME, tissue-based
[5] = Percentage unbound in solid supported porcine brain membrane vesicles at 5 uM using four compound cocktail after 5 hrs by TRANSIL assay; format: ADME, tissue-based, Sus scrofa; details: pig
[6] = Ratio of fraction unbound in Wistar rat brain homogenate at 5 uM after 5 hrs by equilibrium dialysis method to fraction unbound in solid supported porcine brain membrane vesicles at 5 uM by TRANSIL assay
[7] = Ratio, ratio of fraction unbound in solid supported porcine brain membrane vesicles at 5 uM dosed as discrete compounds after 5 hrs by TRANSIL assay to fraction unbound in solid supported porcine brain membrane vesicles at 5 uM using four compound cocktail after 5 hrs by TRANSIL assay; format: ADME, Sus scrofa; details: pig
[8] = Ratio of fraction unbound in solid supported porcine brain membrane vesicles at 5 uM by TRANSIL assay to fraction unbound in Wistar rat brain homogenate at 5 uM after 5 hrs by equilibrium dialysis method; format: ADME, tissue-based
[9] = solid supported porcine brain membrane vesicles

Sequence of Albumin (P02770 whole entry): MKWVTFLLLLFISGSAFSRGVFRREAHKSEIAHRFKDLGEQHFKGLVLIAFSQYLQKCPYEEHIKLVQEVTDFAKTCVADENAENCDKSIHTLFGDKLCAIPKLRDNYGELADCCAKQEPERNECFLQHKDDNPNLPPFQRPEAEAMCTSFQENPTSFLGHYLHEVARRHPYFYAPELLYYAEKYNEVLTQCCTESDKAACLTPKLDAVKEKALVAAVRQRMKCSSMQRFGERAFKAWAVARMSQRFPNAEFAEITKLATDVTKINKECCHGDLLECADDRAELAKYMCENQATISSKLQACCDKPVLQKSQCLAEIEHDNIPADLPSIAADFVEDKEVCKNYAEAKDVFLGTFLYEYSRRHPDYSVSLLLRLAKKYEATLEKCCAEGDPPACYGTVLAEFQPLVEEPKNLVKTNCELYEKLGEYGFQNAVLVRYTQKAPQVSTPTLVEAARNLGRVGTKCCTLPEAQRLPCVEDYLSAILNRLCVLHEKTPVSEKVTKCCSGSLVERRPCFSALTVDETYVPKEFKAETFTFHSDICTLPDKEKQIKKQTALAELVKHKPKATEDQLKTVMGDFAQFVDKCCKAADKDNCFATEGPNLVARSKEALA

Compound	Kd [1] [µM]	fraction unbound at 5 h, 5 µM [2]	fraction unbound at 5 µM [3, 9]	Kd (Albumin) [µM]	fraction unbound [4]	fraction unbound at 5 h, 5 µM [5]	Ratio [6]	Ratio ([7]; in vitro)	Ratio [7]	fraction unbound at 5 µM ([3]; Brain)	Ratio [8]
CN(C)CCC=C1c2ccccc2CCc2ccccc21 [AMITRIPTYLINE]	1.01	0.009	0.0073	134	0.0083	0.0071	1.2	1	–	–	–
CCCCN1CCCCC1C(=O)Nc1c(C)cccc1C (stereo not drawn) [BUPIVACAINE]	–	0.278	0.17	–	–	0.19	1.6	0.9	–	–	–
CC(NC(C)(C)C)C(=O)c1cccc(Cl)c1 (stereo not drawn) [BUPROPION]	–	0.17	0.17	–	–	0.14	1	–	1.2	–	–
Cn1c(=O)c2c(ncn2C)n(C)c1=O [CAFFEINE]	–	0.52	–	–	–	–	2	–	–	0.26	–
NC(=O)N1c2ccccc2C=Cc2ccccc21 [CARBAMAZEPINE]	24.2	0.119	–	–	0.168	0.26	–	–	–	0.132	–
CCCC(C)(COC(N)=O)COC(=O)NC(C)C (stereo not drawn) [CARISOPRODOL]	–	0.202	0.295	–	–	–	–	–	–	–	1.5
CN(C)CCCN1c2ccccc2Sc2ccc(Cl)cc21 [CHLORPROMAZINE]	0.184	0.002	–	–	0.0015	–	–	–	–	0.0022	–
CN1CCN(C2=Nc3cc(Cl)ccc3Nc3ccccc32)CC1 [CLOZAPINE]	0.775	0.011	–	78.8	0.0064	0.0092	1.5	0.8	–	0.0072	–
CN(C)CCC=C1c2ccccc2C=Cc2ccccc21 [CYCLOBENZAPRINE]	–	0.0073	–	–	–	–	–	–	–	0.01	1.4
CNCCC(Oc1ccc(C(F)(F)F)cc1)c1ccccc1 (stereo not drawn) [FLUOXETINE]	0.323	0.004	0.003	36.1	0.0027	–	1.3	–	–	–	–
O=C(CCCN1CCC(O)(c2ccc(Cl)cc2)CC1)c1ccc(F)cc1 [HALOPERIDOL]	1.56	0.011	–	96.9	0.0129	0.014	–	1	–	0.014	1.3
OCCOCCN1CCN(C(c2ccccc2)c2ccc(Cl)cc2)CC1 (stereo not drawn) [HYDROXYZINE]	–	0.0102	–	–	–	–	–	–	–	0.021	2.1
CC(C)Cc1ccc(C(C)C(=O)O)cc1 (stereo not drawn) [IBUPROFEN]	52.7	–	–	–	–	–	–	–	–	–	–
CCN(CC)CCNC(=O)c1cc(Cl)c(N)cc1OC [METOCLOPRAMIDE]	88.9	0.36	–	–	0.426	–	–	–	–	0.295	–
Cc1ncc2n1-c1ccc(Cl)cc1C(c1ccccc1F)=NC2 [MIDAZOLAM]	–	0.023	–	–	–	0.037	–	–	1.1	0.041	1.8
CNCCC=C1c2ccccc2CCc2ccccc21 [NORTRIPTYLINE]	–	0.0046	–	–	–	–	1.2	–	–	0.004	–
Fc1ccc([C@@H]2CCNC[C@H]2COc2ccc3c(c2)OCO3)cc1 [PAROXETINE]	–	0.0039	–	–	–	–	1.5	–	–	0.0026	–
O=C1NC(=O)C(c2ccccc2)(c2ccccc2)N1 [PHENYTOIN]	–	0.081	–	–	–	–	1.7	–	–	0.047	–
CC(C)NCC(O)COc1cccc2ccccc12 (stereo not drawn) [PROPRANOLOL]	–	0.03	0.02	–	–	0.02	1.5	1	–	–	–
Cc1nc2n(c(=O)c1CCN1CCC(c3noc4cc(F)ccc34)CC1)CCCC2 [RISPERIDONE]	–	–	–	43.8	0.121	–	–	–	–	0.057	–
CCN1CCCC1CNC(=O)c1cc(S(N)(=O)=O)ccc1OC (stereo not drawn) [SULPIRIDE]	–	0.63	–	–	–	–	2.6	–	–	0.24	–
CSc1ccc2c(c1)N(CCC1CCCCN1C)c1ccccc1S2 (stereo not drawn) [THIORIDAZINE]	0.369	0.001	–	6.69	0.0031	–	3.3	–	–	0.0003	–
O=c1n(CCCN2CCN(c3cccc(Cl)c3)CC2)nc2ccccn12 [TRAZODONE]	5.47	0.055	0.057	7.95	0.0437	–	1	–	–	–	–
CN1CCN(CCCN2c3ccccc3Sc3ccc(C(F)(F)F)cc32)CC1 [TRIFLUOPERAZINE]	0.392	0.0007	–	–	0.0033	–	–	–	–	0.0018	–
COc1ccc(C(CN(C)C)C2(O)CCCCC2)cc1 (stereo not drawn) [VENLAFAXINE]	38.2	0.21	–	–	0.242	–	–	–	–	0.123	–
CC(=O)CC(c1ccccc1)c1c(O)c2ccccc2oc1=O (stereo not drawn) [WARFARIN]	81.4	–	–	–	0.405	–	–	–	–	–	–

— ChEMBL document CHEMBL3526149, “Brain tissue binding of drugs: evaluation and validation of solid supported porcine brain membrane vesicles (TRANSIL) as a novel high-throughput method” (Drug Metab Dispos, 2011)
